Assays:
Format in all cases: in vivo
Lamium amplexicaule = experiment: Herbicidal action against weeds (greenhouse trials), post-emergence; settings: 672 h, 2- to 3-leaf stage, scored visually approx. 4 weeks after application
Method: (§1) The seeds or rhizome pieces of typical harmful plants were placed into sandy loam soil in round pots, size 13, covered with soil and grown in a greenhouse under good growth conditions. After the harmful plants had emerged, they were treated, as a rule at the 2- to 3-leaf stage, with various dosages of the compositions according to the invention at a water application rate of 100 to 400 I/ha (converted).
(§2) After the treatment (approx. 4 weeks after application), the herbidical activity of the active compounds or active compound mixtures was scored visually by comparing the treated plants with untreated controls. Damage and development of all above-ground parts of the plants was recorded. Scoring was done on a percentage scale (100% action=all plants dead; 50% action=50% of the plants and green plant parts dead; 0% action=no discernible action).
(§3) The results are listed in the tables below, where the activity measured for the independent use of the active compounds (A) and (B) is stated in brackets.

Veronica persica = experiment: as above; settings: 672 h, 2- to 3-leaf stage, scored visually approx. 4 weeks after application
Method: as §1, §2, §3

Acacia farnesiana = experiment: Herbicidal action against woody shrub weeds (greenhouse trials); settings: Vachellia farnesiana, 672 h
Method: as §1, §2, §3
(§4) The plants were cultivated to the 5- to 6-leaf stage. Herbicide application and scoring of the trial were carried out as in Example 1.

Mimosa pigra = experiment: as above; settings: 672 h
Method: as §1, §2, §3, §4

[1] = application rate 40 g of ai/ha, 5- to 6-leaf stage, scored visually approx. 4 weeks after application

## COc1cc(OC)nc(NC(=O)NS(=O)(=O)N(C)S(C)(=O)=O)n1 [Amidosulfuron, 1-(4,6-dimethoxypyrimidin-2-yl)-3-mesyl(methyl)sulfamoylurea]
Lamium amplexicaule; application rate 20 g of ai/ha
  inhibition at 20 g/ha: 18%
Veronica persica; application rate 20 g of ai/ha
  inhibition at 20 g/ha: 20%
Acacia farnesiana; [1]
  inhibition at 40 g/ha: 43%
Mimosa pigra; [1]
  inhibition at 40 g/ha: 20%

## Nc1cc(Cl)nc(C(=O)O)c1Cl [Aminopyralid, 4-amino-3,6-dichloropyridine-2-carboxylic acid]
Acacia farnesiana; read-out: Acacia farnesiana % activity
  inhibition at 60 g/ha: 55%
Mimosa pigra; read-out: Mimosa pigra % activity
  inhibition at 60 g/ha: 73%

## Nc1c(Cl)c(Cl)nc(C(=O)O)c1Cl [Picloram, 4-amino-3,5,6-trichloropyridine-2-carboxylic acid]
Lamium amplexicaule; application rate 60 g of ai/ha
  inhibition at 60 g/ha: 75%
Veronica persica; application rate 60 g of ai/ha
  inhibition at 60 g/ha: 62%

Source: patent US8883680B2, “Herbicide combinations with particular sulphonyl ureas” (Bayer Cropscience AG, priority 2006, dated 2014)
